Measured values: ChEMBL document CHEMBL5370578, “Discovery of a potent, orally available tricyclic derivative as a novel BRD4 inhibitor for melanoma” (Bioorg Med Chem, 2023)
Each block holds one compound with its values, some of them ahead of it.

How the values were obtained:
[1] = target: T1, Bromodomain-containing protein 4 (Homo sapiens, UniProt O60885); assay: Displacement of Biotin-tagged [Lys(5,8,12,16)Ac]H4(1 to 21) peptide from GST-tagged BRD4-BD1 (unknown origin) incubated for 3 hrs by HTRF based TR-FRET assay
[2] = Total clearance in Slc:ICR mouse at 0.5 mg/kg, iv measured for 4 to 8 hrs by LC/MS/MS analysis; type: ADME, organism-based; conditions: in vivo, time 4-8 hrs
[3] = Oral bioavailability in Slc:ICR mouse at 1 mg/kg measured for 8 to 24 hrs by LC/MS/MS analysis; type: ADME, organism-based; conditions: in vivo, time 8-24 hrs
in vivo = conditions: Slc:ICR, mouse, po, 1 mg/kg
[4] = Apparent permeability of the compound across apical side to basolateral side in human Caco-2 cells incubated for 2 hrs by LC-MS/MS analysis
[5] = Stability in human liver microsomes assessed as intrinsic clearance measured per mg protein
[6] = AUC (0 to 8 hrs) in Slc:ICR mouse at 1 mg/kg, po measured for 8 to 24 hrs by LC/MS/MS analysis; type: ADME, organism-based; set-up: time lower 8 hrs, dose 1 mg/kg, time upper 24 hrs, route po; conditions: in vivo
[7] = Stability in mouse liver microsomes assessed as intrinsic clearance measured per mg protein
[8] = Half life in Slc:ICR mouse at 0.5 mg/kg, iv measured for 4 to 8 hrs by LC/MS/MS analysis; type: ADME, organism-based; conditions: in vivo, time 4-8 hrs
[9] = target: T1, Bromodomain-containing protein 4; assay: Inhibition of NanoLuc-tagged full length BRD4 (unknown origin) transfected in HEK293 cells coexpressing histone H4-halo-tagged fusion vector preincubated overnight followed by substrate addition and measured after 10 mins by NanoBRET assay; type: cell-based
[10] = target: Bromodomain testis-specific protein (Homo sapiens, UniProt Q58F21); assay: Displacement of Biotin-tagged [Lys(5,8,12,16)Ac]H4(1 to 21) peptide from GST-tagged BRDT-BD1 (unknown origin) incubated for 3 hrs by HTRF based TR-FRET assay
[11] = Antiproliferative activity against human A375.S2 cells assessed as inhibition of cell growth incubated for 72 hrs by WST-1 assay; type: functional, cell-based; conditions: A375-S2, 72 h
[12] = Antitumor activity against human A375.S2 cells xenografted CAnN.Cg-Foxnlnu/CrlCrlj mouse model assessed as reduction in tumor growth at 60 mg/kg administered twice daily for 14 days relative to control; type: functional; set-up: scale not given: the % may be the effect or the level left; conditions: time 14 day
[13] = Volume of distribution in Slc:ICR mouse at 0.5 mg/kg, iv measured for 4 to 8 hrs by LC/MS/MS analysis; type: ADME, organism-based; conditions: in vivo, time 4-8 hrs
[14] = target: Bromodomain-containing protein 3 (Homo sapiens, UniProt Q15059); assay: Displacement of Biotin-tagged [Lys(5,8,12,16)Ac]H4(1 to 21) peptide from GST-tagged BRD3-BD1 (unknown origin) incubated for 3 hrs by HTRF based TR-FRET assay
[15] = Toxicity in CAnN.Cg-Foxnlnu/CrlCrlj mouse xenografted with human A375.S2 cells assessed as body weight loss at 30 to 60 mg/kg administered twice daily for 14 days; type: organism-based; conditions: in vivo, 336 h, dose 30-60 mg/kg, time 14 day
[16] = target: T1, Bromodomain-containing protein 4; assay: Displacement of Biotin-tagged [Lys(5,8,12,16)Ac]H4(1 to 21) peptide from BRD4-BD2 (unknown origin) incubated for 3 hrs by HTRF based TR-FRET assay
[17] = AUC (0 to 24 hrs) in Slc:ICR mouse at 1 mg/kg, po measured for 8 to 24 hrs by LC/MS/MS analysis; type: ADME, organism-based; set-up: dose 1 mg/kg, time upper 24 hrs, time lower 8 hrs, route po; conditions: in vivo
[18] = target: Bromodomain-containing protein 2 (Homo sapiens, UniProt P25440); assay: Displacement of Biotin-tagged [Lys(5,8,12,16)Ac]H4(1 to 21) peptide from GST-tagged BRD2-BD1 (unknown origin) incubated for 3 hrs by HTRF based TR-FRET assay
Chain of Bromodomain-containing protein 2 (P25440 whole entry): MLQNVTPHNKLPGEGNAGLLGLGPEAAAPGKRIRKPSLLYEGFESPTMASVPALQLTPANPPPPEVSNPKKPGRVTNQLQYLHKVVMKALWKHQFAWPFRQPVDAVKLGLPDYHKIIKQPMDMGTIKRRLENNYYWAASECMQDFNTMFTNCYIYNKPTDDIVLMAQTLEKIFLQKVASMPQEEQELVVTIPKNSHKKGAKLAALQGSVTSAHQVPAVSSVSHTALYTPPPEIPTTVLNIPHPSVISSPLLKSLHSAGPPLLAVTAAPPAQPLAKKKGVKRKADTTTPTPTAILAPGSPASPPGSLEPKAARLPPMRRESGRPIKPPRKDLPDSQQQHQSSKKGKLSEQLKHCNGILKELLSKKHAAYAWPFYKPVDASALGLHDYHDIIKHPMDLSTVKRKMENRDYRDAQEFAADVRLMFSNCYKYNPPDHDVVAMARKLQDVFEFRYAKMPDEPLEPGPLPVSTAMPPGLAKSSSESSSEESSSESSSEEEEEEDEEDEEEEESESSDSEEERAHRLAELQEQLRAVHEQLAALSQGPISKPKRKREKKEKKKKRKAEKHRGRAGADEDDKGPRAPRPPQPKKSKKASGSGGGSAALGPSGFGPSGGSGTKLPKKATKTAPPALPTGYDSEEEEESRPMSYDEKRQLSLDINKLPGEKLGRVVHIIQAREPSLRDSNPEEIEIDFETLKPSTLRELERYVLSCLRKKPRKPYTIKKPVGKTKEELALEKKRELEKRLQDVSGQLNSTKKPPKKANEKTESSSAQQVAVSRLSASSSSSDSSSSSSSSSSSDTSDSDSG

Chain of Bromodomain-containing protein 3 (Q15059 whole entry): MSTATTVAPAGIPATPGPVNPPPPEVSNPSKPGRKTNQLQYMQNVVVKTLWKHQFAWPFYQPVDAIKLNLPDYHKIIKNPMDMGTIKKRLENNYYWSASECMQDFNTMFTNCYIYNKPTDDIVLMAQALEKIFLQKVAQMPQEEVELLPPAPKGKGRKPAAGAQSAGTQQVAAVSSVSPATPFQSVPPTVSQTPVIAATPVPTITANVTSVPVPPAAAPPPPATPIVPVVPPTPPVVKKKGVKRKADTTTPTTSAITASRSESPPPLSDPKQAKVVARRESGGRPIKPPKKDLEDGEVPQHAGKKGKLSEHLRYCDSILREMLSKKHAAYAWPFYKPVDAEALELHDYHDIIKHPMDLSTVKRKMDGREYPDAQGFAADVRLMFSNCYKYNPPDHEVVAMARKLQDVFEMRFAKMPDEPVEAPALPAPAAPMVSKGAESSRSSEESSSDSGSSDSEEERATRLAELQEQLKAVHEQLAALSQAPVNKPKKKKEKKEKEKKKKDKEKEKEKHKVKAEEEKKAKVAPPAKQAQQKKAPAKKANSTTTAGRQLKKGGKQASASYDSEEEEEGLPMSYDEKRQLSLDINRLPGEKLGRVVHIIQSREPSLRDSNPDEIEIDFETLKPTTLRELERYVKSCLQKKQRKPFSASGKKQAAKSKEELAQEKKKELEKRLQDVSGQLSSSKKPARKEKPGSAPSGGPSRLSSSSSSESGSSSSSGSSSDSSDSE

SMILES: CC[S+]([O-])c1cc(-c2cc(C)c(=O)n(C)c2)cc2c1[nH]c(=O)n2Cc1ccccc1 (centres undefined)
IC50 [1]: 157 nM

SMILES: Cc1cc(-c2ccc3ncn(Cc4ccccc4)c3c2)cn(C)c1=O
Cmax (in vivo): < 1 ng/mL
CLH [5]: 65 mL/min
CLH [7]: 36 mL/min

SMILES: Cc1cc(-c2ccc3c(c2)n(Cc2ccccc2)c(=O)n3C)cn(C)c1=O
IC50 [1]: 50 nM
Papp A→B at 2 h [4]: 21 ×10⁻⁶ cm/s
CLH [5]: 25 mL/min
CLH [7]: 20 mL/min

SMILES: Cc1cc(-c2ccc3ccn(Cc4ccccc4)c3c2)cn(C)c1=O
IC50 [1]: 94 nM

SMILES: Cc1cc(-c2ccc3cnn(Cc4ccccc4)c3c2)cn(C)c1=O
IC50 [1]: 61 nM
CLH [5]: 43 mL/min
CLH [7]: 42 mL/min

SMILES: CCS(=O)(=O)c1cc(-c2cc(C)c(=O)n(C)c2)cc2c1[nH]c(=O)n2Cc1ccccc1
IC50 [1]: 112 nM

SMILES: Cc1cc(-c2ccc3c(c2)N(Cc2ccccc2)C(=O)CN3)cn(C)c1=O
IC50 [1]: 122 nM

The next lines start with results.

clearance [2]: 40 mL/min
bioavailability [3]: 70%
IC50 [1]: 32 nM
Cmax (in vivo): 37 ng/mL
Papp A→B at 2 h [4]: 5.9 ×10⁻⁶ cm/s
CLH [5]: 29 mL/min
AUC(0-t) [6]: 178 ng·h/mL
CLH [7]: 15 mL/min
SMILES: Cc1cc(-c2ccc3[nH]c(=O)n(Cc4ccccc4)c3c2)cn(C)c1=O

IC50 [1]: 12 nM
Papp A→B at 2 h [4]: 0.11 ×10⁻⁶ cm/s
CLH [5]: 43 mL/min
CLH [7]: 66 mL/min
SMILES: CCS(=O)(=O)NCc1cc(-c2cc(C)c(=O)n(C)c2)cc2c1[nH]c(=O)n2Cc1ccccc1

IC50 [1]: 42 nM
CLH [5]: 352 mL/min
CLH [7]: 491 mL/min
SMILES: Cc1cc(-c2ccc3c(c2)n(Cc2ccccc2)c(=O)n3CC(C)C)cn(C)c1=O

IC50 [1]: 4.8 nM
CLH [5]: 14 mL/min
CLH [7]: 34 mL/min
SMILES: CCS(=O)(=O)Cc1cc(-c2cc(C)c(=O)n(C)c2)cc2c1n(C)c(=O)n2Cc1ccccc1

IC50 [1]: 25 nM
Papp A→B at 2 h [4]: 14 ×10⁻⁶ cm/s
CLH [5]: 27 mL/min
CLH [7]: 38 mL/min
SMILES: Cc1cc(-c2ccc3c(c2)n(Cc2ccccc2)c(=O)n3C(C)C)cn(C)c1=O

clearance [2]: 3.3 mL/min
bioavailability [3]: 49%
IC50 [1]: 15 nM
Cmax (in vivo): 299 ng/mL
half-life [8]: 4.1 h
IC50 [9]: 81 nM
Papp A→B at 2 h [4]: 12 ×10⁻⁶ cm/s
IC50 [10]: 68 nM
Vd [13]: 1.18 L/kg
IC50 [14]: 25 nM
IC50 [16]: 55 nM
CLH [7]: 17 mL/min
AUC(0-t) [17]: 2420 ng·h/mL
IC50 [18]: 19 nM
SMILES: Cc1cc(-c2cc3c4c(c2)n(Cc2ccccc2)c(=O)n4CCO3)cn(C)c1=O
IC50 [11]: 539 nM
Activity [12]: 41%
Activity [15]: Non-Toxic

IC50 [1]: 19 nM
Papp A→B at 2 h [4]: 0.05 ×10⁻⁶ cm/s
CLH [5]: < 9.6 mL/min
CLH [7]: < 9.6 mL/min
SMILES: CCS(=O)(=O)Nc1cc(-c2cc(C)c(=O)n(C)c2)cc2c1[nH]c(=O)n2Cc1ccccc1

IC50 [1]: 4.2 nM
Papp A→B at 2 h [4]: 0.02 ×10⁻⁶ cm/s
CLH [5]: 11 mL/min
CLH [7]: 11 mL/min
SMILES: CCS(=O)(=O)Cc1cc(-c2cc(C)c(=O)n(C)c2)cc2c1[nH]c(=O)n2Cc1ccccc1

IC50 [1]: 45 nM
SMILES: COCCn1c(=O)n(Cc2ccccc2)c2cc(-c3cc(C)c(=O)n(C)c3)ccc21

IC50 [1]: 39 nM
Papp A→B at 2 h [4]: 0.03 ×10⁻⁶ cm/s
CLH [5]: 37 mL/min
CLH [7]: 53 mL/min
SMILES: CCS(=O)(=O)NCc1cc(-c2cc(C)c(=O)n(C)c2)cc2c1n(C)c(=O)n2Cc1ccccc1

IC50 [1]: 38 nM
CLH [5]: 49 mL/min
CLH [7]: 23 mL/min
SMILES: Cc1cc(-c2ccc3nnn(Cc4ccccc4)c3c2)cn(C)c1=O
